According to patent publication US20230272029A1, “CO-AGONISTS AT GLP-1 AND GIP RECEPTORS SUITABLE FOR ORAL DELIVERY” (Novo Nordisk A/S, priority 2020, published 2023):
Marks after values point to notes of the source that are not given here. Starred links: 1 amine or outer side, 2 acyl side, 3 side chain; linkers in the order of their positions; H or OH if unused. Non-standard residues stand in square brackets, D forms with d. Residues, ends and D or L forms follow the SMILES beside them. Groups on a side chain read outwards from the residue. *: point of attachment. C20 diacid = O=C(O)CCCCCCCCCCCCCCCCCCC(=O)*; C18 diacid = O=C(O)CCCCCCCCCCCCCCCCC(=O)*; γGlu = O=C(O)[C@H](CCC(=O)[*:2])N[*:1]; εLys = N[C@@H](CCCCN[*:1])C(=O)[*:2]; Aib = CC(C)(N)C(=O)O

Assay: Pharmacokinetic study in dogs after oral dosing of tablets with SNAC
Format: in vivo, Beagle dogs
Procedure: The purpose of this example is to determine the half-life and plasma exposure in vivo of the compounds of the present invention after p.o. administration to beagle dogs, i.e. the terminal half-life and concentration of test substance that reaches circulation with time. This is done in a pharmacokinetic (PK) study, where these parameters of the compound in question are determined. By terminal half-life is generally meant the period of time it takes to halve a certain plasma concentration, measured after the initial distribution phase.
The amount of SNAC in the tablet composition was 100-300 mg, the amount of magnesium stearate in the tablet composition was 7.7 mg, and the target amount of each test substance in the tablet composition was 3-4 mg.
Male beagle dogs, 1-7 years of age and weighing 9-17 kg during the study period, were included in the study. The dogs were dosed in a fasting state. The dogs were group housed in pens (12 hours light: 12 hours dark), and fed individually and restrictedly once daily with Royal Canin Medium Adult dog food (Royal Canin Products, China Branch, or Brogaarden A/S, Denmark). The dogs were used for repeated PK studies with a suitable wash-out period between successive dosing. An appropriate acclimatization period was given prior to initiation of the first PK study. All handling, dosing, and blood sampling of the animals were performed by trained and skilled staff. Before the studies, the dogs were fasted overnight and from 0 to 4 hours after dosing. The dogs were restricted to water 1 hour before dosing until 4 hours after dosing, but otherwise had ad libitum access to water during the whole period.
The compositions were administered by a single oral dosing to the dogs in groups of 6-8 dogs. […] The mouth was then closed, and 10 mL of tap water was given by syringe or gavage to facilitate swallowing of the tablet.
For each blood sample time point, approximately 0.8 mL of whole blood was collected in a 1.5 mL EDTA-coated tube, which was gently turned to mix the sample with EDTA. Blood samples were collected in EDTA buffer (8 mM) and then centrifuged at 4° C. and 2000g for 10 minutes. Plasma was pipetted into Micronic tubes on dry ice, and kept at −20° C. or lower until analysis. Blood samples were taken as appropriate, for example from a venflon in the cephalic vein in the front leg for the first 2 hours and then with syringe from the jugular vein for the rest of the time points. The first few drops were allowed to drain from the venflon to avoid heparin saline from the venflon in the sample.
All blood samples were collected into test tubes containing EDTA for stabilisation and kept on ice until centrifugation. Plasma was separated from whole blood by centrifugation and the plasma was stored at −20° C. or lower until analysis.
The plasma was analysed for test substance using LC-MS (Liquid Chromatography-Mass Spectrometry) as known to the person skilled in the art. […] RP-HPLC separation was achieved using a linear gradient of 1:1 acetonitrile/methanol in 1% aqueous formic acid using either: a Phenomenex Onyx Monolithic C18 column (50×2.0 mm) and a flow rate of 0.8 mL/min at 30° C.; or an Agilent Poroshell 120 SB-C18 column (50×2.1 mm, 2.7 μm) at a flow rate of 0.4 mL/min at 60° C. The mass spectrometer was operated in either positive ionization SIM mode or positive ionization PRM mode.
For each individual animal, a plasma concentration-time profile was analysed by a non-compartmental model in Pharsight Phoenix WinNonLin ver. 6.4 software or other relevant software for PK analysis, and the resulting terminal half-life (t1/2), maximum plasma concentration per dose (Cmax/D), time for maximum plasma concentration (tmax), and area under the curve to infinity per dose (AUC/D) were determined. Summary statistics of pharmacokinetic results were presented as median (for tmax), harmonic mean ([…]), or arithmetic mean (Cmax, AUC).

CC[C@H](C)[C@H](NC(=O)[C@H](Cc1ccccc1)NC(=O)[C@H](CCC(=O)O)NC(=O)[C@H](CCC(N)=O)NC(=O)[C@H](C)NC(=O)[C@H](C)NC(=O)[C@H](CCC(N)=O)NC(=O)[C@H](CCCCNC(=O)[C@@H](N)CCCCNC(=O)[C@@H](N)CCCCNC(=O)CC[C@H](NC(=O)CCCCCCCCCCCCCCCCC(=O)O)C(=O)O)NC(=O)[C@H](CCC(=O)O)NC(=O)[C@H](CC(C)C)NC(=O)[C@H](CC(C)C)NC(=O)[C@@H](NC(=O)[C@H](CO)NC(=O)[C@H](Cc1ccc(O)cc1)NC(=O)[C@H](CC(=O)O)NC(=O)[C@H](CO)NC(=O)[C@@H](NC(=O)[C@H](Cc1ccccc1)NC(=O)[C@@H](NC(=O)CNC(=O)[C@H](CCC(=O)O)NC(=O)C(C)(C)NC(=O)[C@@H](N)Cc1ccc(O)cc1)[C@@H](C)O)[C@@H](C)O)[C@@H](C)CC)C(=O)N[C@@H](CCC(=O)O)C(=O)N[C@@H](Cc1c[nH]c2ccccc12)C(=O)N[C@@H](CC(C)C)C(=O)N[C@@H](CC(C)C)C(=O)N[C@@H](C)C(=O)NCC(=O)NCC(=O)N1CCC[C@H]1C(=O)N[C@@H](CO)C(=O)N[C@@H](CO)C(=O)NCC(=O)N[C@@H](C)C(=O)N1CCC[C@H]1C(=O)N1CCC[C@H]1C(=O)N1CCC[C@H]1C(=O)N[C@@H](CO)C(=O)O [Compound No. 29] (H-Y[Aib]EGTFTSDYSILLEK([εLys-εLys-γGlu-C18 diacid])QAAQEFIEWLLAGGPSSGAPPPS-OH)
Cmax/Dose (dog, in vivo, po): 0.26** kg/L

CC[C@H](C)[C@H](NC(=O)[C@H](Cc1ccccc1)NC(=O)[C@H](CCC(=O)O)NC(=O)[C@H](CCCNC(=N)N)NC(=O)[C@H](C)NC(=O)[C@H](C)NC(=O)[C@H](CCC(N)=O)NC(=O)[C@H](CCCCNC(=O)[C@@H](N)CCCCNC(=O)[C@@H](N)CCCCNC(=O)CC[C@H](NC(=O)CCCCCCCCCCCCCCCCC(=O)O)C(=O)O)NC(=O)[C@H](CCC(=O)O)NC(=O)[C@H](CC(C)C)NC(=O)[C@H](CC(C)C)NC(=O)[C@@H](NC(=O)[C@H](CO)NC(=O)[C@H](Cc1ccc(O)cc1)NC(=O)[C@H](CC(=O)O)NC(=O)[C@H](CO)NC(=O)[C@@H](NC(=O)[C@H](Cc1ccccc1)NC(=O)[C@@H](NC(=O)CNC(=O)[C@H](CCC(=O)O)NC(=O)C(C)(C)NC(=O)[C@@H](N)Cc1ccc(O)cc1)[C@@H](C)O)[C@@H](C)O)[C@@H](C)CC)C(=O)N[C@@H](CCC(=O)O)C(=O)N[C@@H](Cc1c[nH]c2ccccc12)C(=O)N[C@@H](CC(C)C)C(=O)N[C@@H](CC(C)C)C(=O)N[C@@H](C)C(=O)NCC(=O)NCC(=O)N1CCC[C@H]1C(=O)N[C@@H](CO)C(=O)N[C@@H](CO)C(=O)NCC(=O)N[C@@H](C)C(=O)N1CCC[C@H]1C(=O)N1CCC[C@H]1C(=O)N1CCC[C@H]1C(=O)N[C@@H](CO)C(=O)O [Compound No. 31] (H-Y[Aib]EGTFTSDYSILLEK([εLys-εLys-γGlu-C18 diacid])QAAREFIEWLLAGGPSSGAPPPS-OH)
Cmax/Dose (dog, in vivo, po): 0.35** kg/L

CC[C@H](C)[C@H](NC(=O)[C@H](Cc1ccccc1)NC(=O)[C@H](CCC(=O)O)NC(=O)[C@H](CCCNC(=N)N)NC(=O)[C@H](C)NC(=O)[C@H](C)NC(=O)[C@H](CCC(N)=O)NC(=O)[C@H](CCCCNC(=O)[C@@H](N)CCCCNC(=O)[C@@H](N)CCCCNC(=O)CC[C@H](NC(=O)CCCCCCCCCCCCCCCCCCC(=O)O)C(=O)O)NC(=O)[C@H](CCC(=O)O)NC(=O)[C@H](CC(C)C)NC(=O)[C@H](Cc1ccc(O)cc1)NC(=O)[C@@H](NC(=O)[C@H](CO)NC(=O)[C@H](Cc1ccc(O)cc1)NC(=O)[C@H](CC(=O)O)NC(=O)[C@H](CO)NC(=O)[C@@H](NC(=O)[C@H](Cc1ccccc1)NC(=O)[C@@H](NC(=O)CNC(=O)[C@H](CCC(=O)O)NC(=O)C(C)(C)NC(=O)[C@@H](N)Cc1ccc(O)cc1)[C@@H](C)O)[C@@H](C)O)[C@@H](C)CC)C(=O)N[C@@H](CC(N)=O)C(=O)N[C@@H](Cc1c[nH]c2ccccc12)C(=O)N[C@@H](CC(C)C)C(=O)N[C@@H](CC(C)C)C(=O)N[C@@H](C)C(=O)NCC(=O)NCC(=O)N1CCC[C@H]1C(=O)N[C@@H](CO)C(=O)N[C@@H](CO)C(=O)NCC(=O)N[C@@H](C)C(=O)N1CCC[C@H]1C(=O)N1CCC[C@H]1C(=O)N1CCC[C@H]1C(=O)N[C@@H](CO)C(=O)O [Compound No. 16] (H-Y[Aib]EGTFTSDYSIYLEK([εLys-εLys-γGlu-C20 diacid])QAAREFINWLLAGGPSSGAPPPS-OH)
AUC/Dose (dog, in vivo, po): 8.6 kg·h/L | Cmax/Dose (dog, in vivo, po): 0.21 kg/L

CC[C@H](C)[C@H](NC(=O)[C@H](Cc1ccccc1)NC(=O)[C@H](CCC(=O)O)NC(=O)[C@H](CCCNC(=N)N)NC(=O)[C@H](C)NC(=O)[C@H](C)NC(=O)[C@H](CCC(N)=O)NC(=O)[C@H](CCCCNC(=O)[C@@H](N)CCCCNC(=O)[C@@H](N)CCCCNC(=O)CC[C@H](NC(=O)CCCCCCCCCCCCCCCCC(=O)O)C(=O)O)NC(=O)[C@H](CCC(=O)O)NC(=O)[C@H](CC(C)C)NC(=O)[C@H](Cc1ccc(O)cc1)NC(=O)[C@@H](NC(=O)[C@H](CO)NC(=O)[C@H](Cc1ccc(O)cc1)NC(=O)[C@H](CC(=O)O)NC(=O)[C@H](CO)NC(=O)[C@@H](NC(=O)[C@H](Cc1ccccc1)NC(=O)[C@@H](NC(=O)CNC(=O)[C@H](CCC(=O)O)NC(=O)C(C)(C)NC(=O)[C@@H](N)Cc1ccc(O)cc1)[C@@H](C)O)[C@@H](C)O)[C@@H](C)CC)C(=O)N[C@@H](CC(N)=O)C(=O)N[C@@H](Cc1c[nH]c2ccccc12)C(=O)N[C@@H](CC(C)C)C(=O)N[C@@H](CC(C)C)C(=O)N[C@@H](C)C(=O)NCC(=O)NCC(=O)N1CCC[C@H]1C(=O)N[C@@H](CO)C(=O)N[C@@H](CO)C(=O)NCC(=O)N[C@@H](C)C(=O)N1CCC[C@H]1C(=O)N1CCC[C@H]1C(=O)N1CCC[C@H]1C(=O)N[C@@H](CO)C(=O)O [Compound No. 11] (H-Y[Aib]EGTFTSDYSIYLEK([εLys-εLys-γGlu-C18 diacid])QAAREFINWLLAGGPSSGAPPPS-OH)
AUC/Dose (dog, in vivo, po): 7.1 kg·h/L | Cmax/Dose (dog, in vivo, po): 0.19 kg/L

CC[C@H](C)[C@H](NC(=O)[C@H](Cc1ccccc1)NC(=O)[C@H](CCC(=O)O)NC(=O)[C@H](CCCNC(=N)N)NC(=O)[C@H](C)NC(=O)[C@H](C)NC(=O)[C@H](CCC(N)=O)NC(=O)[C@H](CCCCNC(=O)[C@@H](N)CCCCNC(=O)[C@@H](N)CCCCNC(=O)CC[C@H](NC(=O)CCCCCCCCCCCCCCCCC(=O)O)C(=O)O)NC(=O)[C@H](CCC(=O)O)NC(=O)[C@H](CC(C)C)NC(=O)[C@H](CC(C)C)NC(=O)[C@@H](NC(=O)[C@H](CO)NC(=O)[C@H](Cc1ccc(O)cc1)NC(=O)[C@H](CC(=O)O)NC(=O)[C@H](CO)NC(=O)[C@@H](NC(=O)[C@H](Cc1ccccc1)NC(=O)[C@@H](NC(=O)CNC(=O)[C@H](CCC(=O)O)NC(=O)C(C)(C)NC(=O)[C@@H](N)Cc1ccc(O)cc1)[C@@H](C)O)[C@@H](C)O)[C@@H](C)CC)C(=O)N[C@@H](CCC(=O)O)C(=O)N[C@@H](Cc1c[nH]c2ccccc12)C(=O)N[C@@H](CC(C)C)C(=O)N[C@@H](CC(C)C)C(=O)N[C@@H](CCCNC(=N)N)C(=O)NCC(=O)NCC(=O)N1CCC[C@H]1C(=O)N[C@@H](CCC(=O)O)C(=O)N[C@@H](CO)C(=O)NCC(=O)N[C@@H](C)C(=O)N1CCC[C@H]1C(=O)N1CCC[C@H]1C(=O)N1CCC[C@H]1C(=O)N[C@@H](CO)C(=O)O [Compound No. 28] (H-Y[Aib]EGTFTSDYSILLEK([εLys-εLys-γGlu-C18 diacid])QAAREFIEWLLRGGPESGAPPPS-OH)
Cmax/Dose (oral tablet, 300 mg SNAC, 3 mg test substance, Beagle dogs, arithmetic mean): 0.36** kg/L
